Measurements as given in patent US7544666B2, “NAP derivatives” (Industrial Technology Research Institute, priority 2005, dated 2009).

Experiments:
[1] = system: Caco-2 cell monolayer; test: Permeation to Caco-2 cell monolayer; type: in vitro ADME, human; set-up: unit not given here; conditions: 4-hour incubation, initial concentration 500 μM in upper layer
Experimental: The permeation of NAP and the NAP derivatives was examined using the Caco-2 cell system. Caco-2 cells (1×10^5 cells) were seeded into the polycarbonate film on the upper layer of a 12-well Transwell and incubated at 37° C. for 18 to 26 days. The TEER of the Caco cell monolayer was measured over 350 Ω×cm^2. NAP and the NAP derivatives in the HBSS were added into the upper layer of the Caco-2 cell-seeded Transwell. After 4-hour incubation, the concentration of NAP and the NAP derivatives in the upper and lower layers was measured and analyzed in comparison with the initial concentration (500 μM) by reverse phase HPLC at 210 nm.

[2] = system: Caco-2 cell; test: Stability in the Caco-2 cell system; type: in vitro ADME, human; conditions: 4-hour incubation in Caco-2 Transwell; relative to initial conc. = 100.00 (500 μM)
Experimental: (§1) The stability of the NAP derivatives prepared by EXAMPLE 1 was measured with the system of human colon cancer cell, Caco-2 cell. Caco-2 cells (1×10^5 cells) were first seeded into a polycarbonate film on the upper layer of a 12-well Transwell and incubated for 18 to 26 days at 37° C. The TEER of the Caco-2 cell monolayer was measured over 350 Ω×cm^2. The stability of the NAP derivatives in the Hanks' balanced salt solutions (HBSS) was measured by the concentration changes of NAP and the NAP derivatives incubated in the HBSS at 37° C. for 4 hours. The stability of the NAP derivatives in the Caco-2 cell system was measured by the procedure described below. NAP and the NAP derivatives in the HBSS were added into the upper layer of the Caco-2 cell-seeded Transwell. After 4-hour incubation, the concentration of NAP and the NAP derivatives in the upper and lower layers was measured and analyzed in comparison with the initial concentration (500 μM) by reverse HPLC at 210 nm.

[3] = Stability in Hanks' balanced salt solution (HBSS); type: physicochemical; conditions: 37° C., relative to initial conc. in HBSS = 100.00
Experimental: as §1

[4] = Pharmacokinetics after single subcutaneous dose in rats; type: in vivo; conditions: rat, 1 mg/kg subcutaneous
Experimental: A single dosage of NAP and the NAP derivative of BMEC-NAP0706 were subcutaneously administered to rats respectively, and blood samples were obtained at different time intervals. The blood samples were subjected to LC-MS/MS analysis to measure the concentration of NAP and the NAP derivative. A time-plasma concentration relationship was established and pharmacokinetic parameters were calculated. The procedures are described below.
Long Evans rats with body weight between 220 to 240 g were obtained from the National Laboratory Animal Center, Taiwan and caged in the laboratory animal housing in the Industrial Technology Research Institute, Taiwan. The Breeding procedure follows the “Guide for the Care and Use of Laboratory Animals” established by the Chinese Society of Laboratory Animal Sciences. The rats were kept on an alternating 12-hour light and 12-hour dark schedule with sufficient feed and water until they reached the body weight between 280 to 300 g.
Each rat was weighed before the pharmacokinetic examination to estimate its own dosage. The tested drug dissolved in PBS was formulated to achieve the amount of one dosage between 0.28 to 0.32 mL. Each rat was subcutaneously administered with 1 mg/kg of the tested drug. 0.3 mL of blood samples were collected from the saphenous vein in medial thigh of the rat before and 0.25-, 0.5-, 0.75-, 1-, 2-, 4-, 24-hour after administration. Whole blood was centrifuged under 3500 rpm for 10 min and supernatant (serum) was moved to a clean 1.5 mL eppendorf and stored at −80° C.
Sample pretreatment was as follows: The frozen serum was thawed in an ice bath. One hundred μL of the serum was moved to a clean 1.5 mL eppendorf and 10 μL of internal standard material was added. The mixture was added with 200 μL ACN and mixed again. The sample was centrifuged under 14000 rpm at 4° C. for 10 min, and the supernatant was moved to the other clean eppendorf and dried in a vacuum system at 60° C. for 30 min. The dried sample was dissolved in 900 μL ddH2O. The sample was added to a solid phase extraction column previously activated with methanol and ddH2O. After the sample passed through, the extraction column was washed with ddH2O alone and then ddH2O containing 5% ACN and 0.1% TFA. The sample was dissolved from the extraction column with ACN containing 0.1% TFA and dried under a vacuum system at 60° C. for 1 hour. The dried sample was redissolved with 100 μL of ddH2O containing 50% ACN. The sample was analyzed with HPLC-MS/MS system.
The sample analysis was as described below. 20 μL of the sample was poured into the HPLC-MS/MS system. The solvent system was applied in gradient partitioning: 90% A (H2O/ACN=98/2, 0.1% F.A.) and 10% B (H2O/ACN=20/80, 0.1% F.A.) at 0-3 min; 10% A and 90% B at 3-6.5 min; 90% A and 10% B again at 6.5-15 min. The flow rate was 0.2 mL/min. The column was ZORBAX C18, 5 μm, 2.1×50 mm (Agilent) and the detector was ABI 4000 Q Trap. Each sample was analyzed for 15 min. The results were compared with the standard calibration curve to estimate the concentration of each sample. All data was statistically analyzed with Excel or WinNonlin.

Compound	Conc. at the lover layer [1]	Conc. after 4-hour in Caco-2 cells [2]	Conc. after 4-hour in HBSS [3]	other results
CC[C@H](C)[C@H](NC(=O)[C@H](CO)NC(=O)[C@@H](NC(=O)[C@@H]1CCCN1C(=O)[C@H](C)NC(=O)[C@H](CC(N)=O)NC(=O)c1cccc2ccccc12)C(C)C)C(=O)N1CCC[C@H]1C(=O)N[C@@H](CCC(N)=O)C(N)=O [BMEC-NAP0802, α-Naphthoyl-NAPVSIPQ-NH2]	0.34	88.68	100.00	
CC[C@H](C)[C@@H]1NC(=O)[C@H](CO)NC(=O)[C@H](C(C)C)NC(=O)[C@@H]2CCCN2C(=O)[C@H](C)NC(=O)[C@H](CC(N)=O)NC(=O)[C@H](CCC(N)=O)NC(=O)[C@@H]2CCCN2C1=O [BMEC-NAP0301, Cyclo-(NAPVSIPQ)]	0.35	94.72	100.72	
CC[C@H](C)[C@H](NC(=O)[C@H](CO)NC(=O)[C@@H](NC(=O)[C@@H]1CCCN1C(=O)[C@H](C)NC(=O)[C@H](CC(N)=O)NC(=O)c1cccs1)C(C)C)C(=O)N1CCC[C@H]1C(=O)N[C@@H](CCC(N)=O)C(N)=O [BMEC-NAP0804, 2-Thiophenecarbonyl-NAPVSIPQ-NH2]	0.31	92.09	98.62	
CCCCCCOC(=O)N[C@@H](CC(N)=O)C(=O)N[C@@H](C)C(=O)N1CCC[C@H]1C(=O)N[C@H](C(=O)N[C@@H](CO)C(=O)N[C@H](C(=O)N1CCC[C@H]1C(=O)N[C@@H](CCC(N)=O)C(=O)O)[C@@H](C)CC)C(C)C [BMEC-NAP0404, nHex-OCO-NAPVSIPQ-OH]	2.00	29.87	99.16	
CC[C@H](C)[C@H](NC(=O)[C@H](CO)NC(=O)[C@@H](NC(=O)[C@@H]1CCCN1C(=O)[C@H](C)NC(=O)[C@H](CC(N)=O)NC(=O)OCC1c2ccccc2-c2ccccc21)C(C)C)C(=O)N1CCC[C@H]1C(=O)N[C@@H](CCC(N)=O)C(=O)O [BMEC-NAP0706, Fmoc-NAPVSIPQ-OH]	0.57	67.14	99.78	AUC ([4]; in vivo, sc): 104 ng·h/mL; Cmax ([4]; in vivo, sc): 101 ng/mL; Tmax ([4]; in vivo, sc): 45 min; half-life ([4]; in vivo, sc, read-out: T½ (converted)): 54.6 min; AUC relative to NAP [4]: twice that of NAP; TNAP-max [4]: 0.25 h; maximum plasma concentration relative to NAP [4]: twice that of NAP; time required to reach the highest concentration [4]: 0.25 h
CC[C@H](C)[C@H](NC(=O)[C@H](CO)NC(=O)[C@@H](NC(=O)[C@@H]1CCCN1C(=O)[C@H](C)NC(=O)[C@H](CC(N)=O)NC(=O)c1cccc2ccccc12)C(C)C)C(=O)N1CCC[C@H]1C(=O)N[C@@H](CCC(N)=O)C(=O)O [BMEC-NAP0702, α-Naphthoyl-NAPVSIPQ-OH]	0.27	61.61	96.55	
CCCC(=O)N[C@@H](CC(N)=O)C(=O)N[C@@H](C)C(=O)N1CCC[C@H]1C(=O)N[C@H](C(=O)N[C@@H](CO)C(=O)N[C@H](C(=O)N1CCC[C@H]1C(=O)N[C@@H](CCC(N)=O)C(N)=O)[C@@H](C)CC)C(C)C [BMEC-NAP0201, Butyryl-NAPVSIPQ-NH2]	0.12	94.18	100.39	
CC[C@H](C)[C@H](NC(=O)[C@H](CO)NC(=O)[C@@H](NC(=O)[C@@H]1CCCN1C(=O)[C@H](C)NC(=O)[C@H](CC(N)=O)NC(=O)OCC(C)C)C(C)C)C(=O)N1CCC[C@H]1C(=O)N[C@@H](CCC(N)=O)C(N)=O [BMEC-NAP0501, iBu-OCO-NAPVSIPQ-NH2]	0.76	87.00	100.17	
CC[C@H](C)[C@H](NC(=O)[C@H](CO)NC(=O)[C@@H](NC(=O)[C@@H]1CCCN1C(=O)[C@H](C)NC(=O)[C@H](CC(N)=O)NC(=O)OCC(C)C)C(C)C)C(=O)N1CCC[C@H]1C(=O)N[C@@H](CCC(N)=O)C(=O)O [BMEC-NAP0401, iBu-OCO-NAPVSIPQ-OH]	0.24	52.63	100.02	
CCCCCCOC(=O)N[C@@H](CC(N)=O)C(=O)N[C@@H](C)C(=O)N1CCC[C@H]1C(=O)N[C@H](C(=O)N[C@@H](CO)C(=O)N[C@H](C(=O)N1CCC[C@H]1C(=O)N[C@@H](CCC(N)=O)C(N)=O)[C@@H](C)CC)C(C)C [BMEC-NAP0504, nHex-OCO-NAPVSIPQ-NH2]	0.49	82.71	100.22	
CC[C@H](C)[C@H](NC(=O)[C@H](CO)NC(=O)[C@@H](NC(=O)[C@@H]1CCCN1C(=O)[C@H](C)NC(=O)[C@H](CC(N)=O)NC(=O)c1cccs1)C(C)C)C(=O)N1CCC[C@H]1C(=O)N[C@@H](CCC(N)=O)C(=O)O [BMEC-NAP0704, 2-Thiophenecarbonyl-NAPVSIPQ-OH]	0.24	73.69	99.88	
CCCCOC(=O)N[C@@H](CC(N)=O)C(=O)N[C@@H](C)C(=O)N1CCC[C@H]1C(=O)N[C@H](C(=O)N[C@@H](CO)C(=O)N[C@H](C(=O)N1CCC[C@H]1C(=O)N[C@@H](CCC(N)=O)C(N)=O)[C@@H](C)CC)C(C)C [BMEC-NAP0503, nBu-OCO-NAPVSIPQ-NH2]	0.60	85.89	99.77	
H-NAPVSIPN-OH [BMEC-NAP0603, H-NAPVSIPN-OH]	0.04	29.17	101.90	
Adipyl-NAPVSIPQ-NH2 [BMEC-NAP0202]	0.82	95.59	98.38	
